In PubChem BioAssay AID1963420 (Molecular Pharmacology Branch, DTP, NCI, 2024):
Several values for one entry are separate records, joined by “and”; a condition that tells them apart may be missing. Identical values can stand only once.

Test system: 494315-158-R-J1-PDC complex spheroid growth, percent test/control
Test: Anticancer human tumor 494315-158-R-J1-PDC patient-derived soft tissue sarcoma cell line growth inhibition [Asc]
Conditions: for viability, T/C: stronger effect = lower value
Method in brief: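 Spheroid model: tumor line + HUVEC + hMSC. Single agents and combinations; top conc. at/near clinical Cmax (10 microM if undetermined), half-log dilutions. DMSO stocks at 800-fold test concentration.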

[1] = curve of first compound, second compound 0.1 µM
[2] = curve of first compound, second compound 0.316 µM
[3] = curve of first compound, second compound 1 µM
[4] = second compound 0.1 µM, first compound 0.0316 µM
[5] = second compound 0.1 µM, first compound 0.1 µM
[6] = second compound 0.1 µM, first compound 0.316 µM
[7] = second compound 0.1 µM, first compound 1 µM
[8] = second compound 0.1 µM, first compound 3.16 µM
[9] = second compound 0.1 µM, first compound 10 µM
[10] = second compound 0.316 µM, first compound 0.0316 µM
[11] = second compound 0.316 µM, first compound 0.1 µM
[12] = second compound 0.316 µM, first compound 0.316 µM
[13] = second compound 0.316 µM, first compound 1 µM
[14] = second compound 0.316 µM, first compound 3.16 µM
[15] = second compound 0.316 µM, first compound 10 µM
[16] = second compound 1 µM, first compound 0.0316 µM
[17] = second compound 1 µM, first compound 0.1 µM
[18] = second compound 1 µM, first compound 0.316 µM
[19] = second compound 1 µM, first compound 1 µM
[20] = second compound 1 µM, first compound 3.16 µM
[21] = second compound 1 µM, first compound 10 µM
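Further: compound exposure lasted seven days after spheroids formed for three days.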

Work on C#Cc1c(F)ccc2cc(O)cc(-c3ncc4c(N5CC6CCC(C5)N6)nc(OCC56CCCN5CC(F)C6)nc4c3F)c12 (centres undefined) + CNC(C)C(=O)NC1CN(S(=O)(=O)c2cccc(S(=O)(=O)N3CCC4CCC(C(=O)NC(c5ccccc5)c5ccccc5)N4C(=O)C(NC(=O)C(C)NC)C3)c2)CCC2CCC(C(=O)NC(c3ccccc3)c3ccccc3)N2C1=O yielded an IC50 (curve of first compound, second compound 0.01 µM) of over 10000 nM, an IC50 (curve of first compound, second compound 0.0316 µM) of over 10000 nM and an IC50 [1] of over 10000 nM. It also gave an IC50 [2] of over 10000 nM, an IC50 [3] of under 31.6 nM and a viability, T/C (second compound 0.01 µM, first compound 0.0316 µM) of 75.8%. For the same compound, the viability, T/C (second compound 0.01 µM, first compound 0.1 µM) was 77.5%, the viability, T/C (second compound 0.01 µM, first compound 0.316 µM) was 78.4% and the viability, T/C (second compound 0.01 µM, first compound 1 µM) was 89.3%. For the same compound, the viability, T/C (second compound 0.01 µM, first compound 3.16 µM) was 86.8%, the viability, T/C (second compound 0.01 µM, first compound 10 µM) was 82% and the viability, T/C (second compound 0.0316 µM, first compound 0.0316 µM) was 66.7%. It also gave a viability, T/C (second compound 0.0316 µM, first compound 0.1 µM) of 59.8%, a viability, T/C (second compound 0.0316 µM, first compound 0.316 µM) of 71.6% and a viability, T/C (second compound 0.0316 µM, first compound 1 µM) of 71.6%. For the same compound, the viability, T/C (second compound 0.0316 µM, first compound 3.16 µM) was 76.9%, the viability, T/C (second compound 0.0316 µM, first compound 10 µM) was 78% and the viability, T/C [4] was 53.5%. The viability, T/C [5] was 65.6%, the viability, T/C [6] was 65.3% and the viability, T/C [7] was 65.4%. The viability, T/C [8] was 72.4%, the viability, T/C [9] was 70.7% and the viability, T/C [10] was 47.8%. The viability, T/C [11] was 48.1%, the viability, T/C [12] was 52.7% and the viability, T/C [13] was 51.9%. The viability, T/C [14] was 51.4%, the viability, T/C [15] was 69.5% and the viability, T/C [16] was 37.6%. The viability, T/C [17] was 43.8%, the viability, T/C [18] was 39.4% and the viability, T/C [19] was 45.8%. It also gave a viability, T/C [20] of 55.5% and a viability, T/C [21] of 55.6%.

Cn1ncnc1[C@H]1c2n[nH]c(=O)c3cc(F)cc(c23)N[C@@H]1c1ccc(F)cc1 + CCN1C(C(=O)NC23CCC(C(=O)O)(CC2)CC3)C(c2cccc(Cl)c2F)C2(C(=O)Nc3cc(Cl)ccc32)C12CCCCC2 showed an IC50 (curve of first compound, second compound 0.03 µM) of over 100 nM, an IC50 (curve of first compound, second compound 0.0949 µM) of over 100 nM and an IC50 (curve of first compound, second compound 0.3 µM) of over 100 nM. The IC50 (curve of first compound, second compound 0.949 µM) was over 100 nM, the IC50 (curve of first compound, second compound 3 µM) was over 100 nM and the viability, T/C (second compound 0.03 µM, first compound 0.000316 µM) was 104%. The viability, T/C (second compound 0.03 µM, first compound 0.001 µM) was 101%, the viability, T/C (second compound 0.03 µM, first compound 0.00316 µM) was 86.8% and the viability, T/C (second compound 0.03 µM, first compound 0.01 µM) was 78.9%. For the same compound, the viability, T/C (second compound 0.03 µM, first compound 0.0316 µM) was 76.3%, the viability, T/C (second compound 0.03 µM, first compound 0.1 µM) was 57% and the viability, T/C (second compound 0.0949 µM, first compound 0.000316 µM) was 108%. It also gave a viability, T/C (second compound 0.0949 µM, first compound 0.001 µM) of 93.4%, a viability, T/C (second compound 0.0949 µM, first compound 0.00316 µM) of 87.1% and a viability, T/C (second compound 0.0949 µM, first compound 0.01 µM) of 66.3%. It also gave a viability, T/C (second compound 0.0949 µM, first compound 0.0316 µM) of 64.6%, a viability, T/C (second compound 0.0949 µM, first compound 0.1 µM) of 58.2% and a viability, T/C (second compound 0.3 µM, first compound 0.000316 µM) of 81.8%. For the same compound, the viability, T/C (second compound 0.3 µM, first compound 0.001 µM) was 94.3%, the viability, T/C (second compound 0.3 µM, first compound 0.00316 µM) was 75.5% and the viability, T/C (second compound 0.3 µM, first compound 0.01 µM) was 76.2%. For the same compound, the viability, T/C (second compound 0.3 µM, first compound 0.0316 µM) was 62.9%, the viability, T/C (second compound 0.3 µM, first compound 0.1 µM) was 76.3% and the viability, T/C (second compound 0.949 µM, first compound 0.000316 µM) was 95.3%. For the same compound, the viability, T/C (second compound 0.949 µM, first compound 0.001 µM) was 80.1%, the viability, T/C (second compound 0.949 µM, first compound 0.00316 µM) was 78.4% and the viability, T/C (second compound 0.949 µM, first compound 0.01 µM) was 64%. It also gave a viability, T/C (second compound 0.949 µM, first compound 0.0316 µM) of 73.5%, a viability, T/C (second compound 0.949 µM, first compound 0.1 µM) of 72.1% and a viability, T/C (second compound 3 µM, first compound 0.000316 µM) of 105%. It also gave a viability, T/C (second compound 3 µM, first compound 0.001 µM) of 92.3%, a viability, T/C (second compound 3 µM, first compound 0.00316 µM) of 67.9% and a viability, T/C (second compound 3 µM, first compound 0.01 µM) of 70.9%. It also gave a viability, T/C (second compound 3 µM, first compound 0.0316 µM) of 54.7% and a viability, T/C (second compound 3 µM, first compound 0.1 µM) of 74.2%.

COc1c(OCCCN2CCOCC2)ccc2c3n(c(=NC(=O)c4cnc(N)nc4)nc12)CCN3 was tested, and the viability, T/C (compound 0.00316 µM) was 87.8% and 87% and 82.3%, the viability, T/C (compound 0.01 µM) was 79.6% and 80.4% and 82.8% and the viability, T/C (compound 0.0316 µM) was 56.8% and 58.9% and 54.3%. The viability, T/C (compound 0.1 µM) was 37% and 32% and 34%, the viability, T/C (compound 0.316 µM) was 20.7% and 21.1% and 18% and the viability, T/C (compound 1 µM) was 16.9% and 20.5% and 16.8%. The IC50 (curve of compound) was 48 nM and 46 nM and 44.1 nM.

C=C(F)C(=O)N1CCN(c2nc(OCC3CCCN3C)nc3c2CCN(c2cccc4cccc(Cl)c24)C3)CC1CC#N (centres undefined) + Cc1c(S(C)(=O)=O)c(-c2cc(F)cc(N3CCN(c4ccc(NS(=O)(=O)c5ccc(NC(CCN6CCC(C(=O)OCCCP(=O)(O)O)CC6)CSc6ccccc6)c(S(=O)(=O)C(F)(F)F)c5)cc4)CC3)c2)c(-c2ccc(Cl)cc2)n1C(C)C gave an IC50 [1] of 1810 nM, an IC50 [2] of 1340 nM and an IC50 [3] of 1370 nM. The IC50 (curve of first compound, second compound 3.16 µM) was 367 nM, the IC50 (curve of first compound, second compound 10 µM) was 1470 nM and the viability, T/C [4] was 77.7%. It also gave a viability, T/C [5] of 79.6%, a viability, T/C [6] of 71.8% and a viability, T/C [7] of 73.7%. The viability, T/C [8] was 27.8%, the viability, T/C [9] was 0.16% and the viability, T/C [10] was 73.5%. The viability, T/C [11] was 72.7%, the viability, T/C [12] was 75.1% and the viability, T/C [13] was 57%. It also gave a viability, T/C [14] of 25.6%, a viability, T/C [15] of 0.14% and a viability, T/C [16] of 64.3%. It also gave a viability, T/C [17] of 67%, a viability, T/C [18] of 65.5% and a viability, T/C [19] of 61.1%. It also gave a viability, T/C [20] of 20.6%, a viability, T/C [21] of 0.12% and a viability, T/C (second compound 3.16 µM, first compound 0.0316 µM) of 55.9%. It also gave a viability, T/C (second compound 3.16 µM, first compound 0.1 µM) of 53.4%, a viability, T/C (second compound 3.16 µM, first compound 0.316 µM) of 47.8% and a viability, T/C (second compound 3.16 µM, first compound 1 µM) of 41.1%. For the same compound, the viability, T/C (second compound 3.16 µM, first compound 3.16 µM) was 11.1%, the viability, T/C (second compound 3.16 µM, first compound 10 µM) was 0.15% and the viability, T/C (second compound 10 µM, first compound 0.0316 µM) was 75.8%. For the same compound, the viability, T/C (second compound 10 µM, first compound 0.1 µM) was 78.5%, the viability, T/C (second compound 10 µM, first compound 0.316 µM) was 73.5% and the viability, T/C (second compound 10 µM, first compound 1 µM) was 65.3%. It also gave a viability, T/C (second compound 10 µM, first compound 3.16 µM) of 20% and a viability, T/C (second compound 10 µM, first compound 10 µM) of 0.24%.

In the case of C#Cc1c(F)ccc2cc(O)cc(-c3ncc4c(N5CC6CCC(C5)N6)nc(OCC56CCCN5CC(F)C6)nc4c3F)c12 (centres undefined), the viability, T/C (compound 0.0316 µM) is reported as 107% and 98.9% and 87.7%, the viability, T/C (compound 0.1 µM) is reported as 109% and 102% and 108% and the viability, T/C (compound 0.316 µM) is reported as 107% and 98.4% and 99.9%. The viability, T/C (compound 1 µM) was 107% and 104% and 95.3%, the viability, T/C (compound 3.16 µM) was 120% and 97.1% and 100% and the viability, T/C (compound 10 µM) was 103% and 86.4% and 91.4%. It also gave an IC50 (curve of compound) of over 10000 nM.
